Results: patent US20260071220A1, “CONJUGATE OF NUCLEOTIDE ANALOG-CONTAINING DOUBLE-STRANDED RNAI ANALOG” (BaseCure Therapeutics LLC, priority 2022, published 2026)

Assays:
Conditions in all cases: 24 h, positive control
HEK BLUE hTLR8 = test: Cell activity detection (CellTiter-Glo) in hTLR8 cells; format: cell-based, human
Protocol: (§1) 1) The conjugate of the present invention was diluted to a concentration that was 20 times a final concentration, the diluted conjugate was mixed with RNAiMAX-OPTI MEM (RNAiMAX:OPTI MEM=3:47) at a ratio of 1:1 and incubated for 15 min at room temperature.
(§2) 2) 10 μL of incubated conjugate of the present invention was added into a corresponding cell plate, with 10 concentrations in total, a maximum concentration being 200 nM, and double duplicated wells for each concentration.
(§3) 4) 90 μL of cells were seeded into a 96-well plate with the conjugate at the density of 50,000 cells/well.
(§4) 5) The conjugate of the present invention and the cells were co-incubated for 24 h in an incubator under the conditions of 37° C. and 5% CO2.
(§5) 8) Cell activity detection: the operation was carried out according to the method in the Celltiter-Glo specification, and a chemiluminescence signals (RLU) were detected using the multifunctional microplate reader Flexstation III.
(§6) Compound activity: the OD650 values were analyzed using GraphPad Prism software, and a dose effect curve of the compound was fit, and the EC50 value of the compound was calculated. Cell activity detection: the calculation formula of cell activity % was as follows. The cell activity % value was analyzed using GraphPadPrism software, the dose effect curve of the compound was fit, and the CC50 value of the compound on cell was calculated.

HEK BLUE hTLR7 = test: Cell activity detection (CellTiter-Glo) in hTLR7 cells; format: cell-based, human
Protocol: as §1, §2, §3, §4, §5, §6

HEK BLUE hTLR3 = test: Cell activity detection (CellTiter-Glo) in hTLR3 cells; format: cell-based, human
Protocol: as §1, §2, §3, §4, §5, §6

hTLR3 = biological target: T1, hTLR3 (Homo sapiens, UniProt O15455); test: Agonistic activity on hTLR3 cells (HEK BLUE, QUANTI-Blue OD650); format: cell-based
T1 construct: host or cells: HEK BLUE hTLR3 (HEK293-derived SEAP reporter line)
T1 sequence (O15455 24-904): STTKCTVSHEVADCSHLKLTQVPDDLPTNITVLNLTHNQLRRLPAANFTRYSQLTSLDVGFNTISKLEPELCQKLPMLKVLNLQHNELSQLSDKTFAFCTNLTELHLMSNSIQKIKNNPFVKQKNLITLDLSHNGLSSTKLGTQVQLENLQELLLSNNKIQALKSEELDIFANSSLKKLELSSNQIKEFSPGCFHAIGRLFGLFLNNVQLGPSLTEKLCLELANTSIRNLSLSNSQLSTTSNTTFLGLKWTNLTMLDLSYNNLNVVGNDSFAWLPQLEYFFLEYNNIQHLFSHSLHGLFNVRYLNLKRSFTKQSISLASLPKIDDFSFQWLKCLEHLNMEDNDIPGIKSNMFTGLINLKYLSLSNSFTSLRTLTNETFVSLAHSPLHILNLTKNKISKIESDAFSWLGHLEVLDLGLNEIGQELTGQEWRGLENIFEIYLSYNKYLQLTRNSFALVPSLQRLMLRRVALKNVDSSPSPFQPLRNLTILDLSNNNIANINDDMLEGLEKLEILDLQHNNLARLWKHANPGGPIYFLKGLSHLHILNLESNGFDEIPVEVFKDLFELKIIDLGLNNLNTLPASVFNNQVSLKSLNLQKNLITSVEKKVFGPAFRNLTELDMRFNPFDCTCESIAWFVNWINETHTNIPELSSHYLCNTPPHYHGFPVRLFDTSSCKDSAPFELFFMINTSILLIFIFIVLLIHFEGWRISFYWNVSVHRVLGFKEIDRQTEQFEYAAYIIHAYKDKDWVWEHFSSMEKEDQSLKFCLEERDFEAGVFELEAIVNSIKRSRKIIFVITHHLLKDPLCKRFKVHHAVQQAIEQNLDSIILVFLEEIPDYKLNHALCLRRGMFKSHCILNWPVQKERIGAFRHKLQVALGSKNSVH
Protocol: as §1, §2
10 μL of 0.5 μM BLOCK-iT™ Alexa Fluor® Red Fluorescent Control was added into 2 transfection positive control wells.
as §3, §4
7) Compound activity detection: 20 μL of cell supernatant was taken from each well and added into an experimental plate containing 180 μL of QUANTI-Blue™ reagent and then incubated for 1 h at 37° C., followed by detecting an absorbance values at 650 nm (OD650) using the multifunctional microplate reader Flexstation III.
as §6

EC50 (hTLR3) | Compound | CC50 (HEK BLUE hTLR8) | CC50 (HEK BLUE hTLR7) | CC50 (HEK BLUE hTLR3)
 | CCOCc1nc2c(N)nc3ccccc3c2n1CC(C)(C)O [Conjugate R848, R848, reference compound] | >10 mg/L | >10 mg/L | 
0.05943 mg/L | Poly (I:C) HMW [Poly(I:C) HMW, reference compound] |  |  | >2 mg/L
